Experiments:
HDAC1 = biological target: T1, HDAC1 (Homo sapiens, UniProt Q13547); test: HDAC-1 immunocapture fluorescent biochemical assay (HeLa lysate); conditions: HDAC1 immunocaptured from HeLa extract
T1 construct: cell extract containing HDAC (HeLa in these experiments); endogenous in cells; host or cells: HeLa cell extract
Experimental: The HDAC-1 assay represents a novel immunocapture assay procedure. […] The HDAC1 is captured on a protein A coated plate using HDAC1 specific antibody, and is then allowed to react with the substrate.
This assay in performed in four general steps. In the first step (FIG. 1A), cell extract containing HDAC (HeLa in these experiments) is incubated with (cell signaling) rabbit polyclonal HDAC1 antibody (rabbit IgG antibody is used for background control) to allow binding of the enzyme to the antibody. In the second step, the complexed mixture is added to the protein A covered plate which captures the antibody. In the third step, after washing away unbound proteins, substrate and inhibitor are added and deacetylation is allowed to occur. […] The plate is then read on either Victor or Perkin Elmer Envision system using Umbilliferone filter set.
• A. HeLa extract complexed with HDAC1 antibody working solution (in DPBS):
Compound working solution (in HDAC buffer):
Compounds diluted in assay buffer at 2× Screening concentration. • D. Activator solution:
Trypsin (10 mg/mL) diluted 1:1600 in assay buffer containing 4 μM TSA.
Complexing of extract with antibody was carried out at room temperature for 60 min with rocking. Binding of complexes onto protein A plate was carried out at room temperature for 60 min in 50 μL. Reaction was carried out in […], in the protein A plate for 60 minutes at 37° C. 40 μL of the reaction was moved into white ½ area plate for activation and reading.
• 1. Set PIERCE Protein A plate to block with 150 μof 5% BSA in TB ST for 60 min at room temperature. • 2. […] Dilute complexes further ([…]) by addition of 3.5 mL of PBS (final total volume of 5 mL). • 4. Wash blocked protein A plate prior to complex addition with TBST. • 5. Add 50 μl of diluted complexes to Protein A plate and incubate for 60 min at room temperature. • 6. Wash plate with TB ST. • 7. Add 25 μl of diluted compounds (in HDAC buffer) to each well and incubate for 10 min at room temperature. • 8. […] Move 40 μl of reaction to a white plate and add 20 μl of activator/developer solution, mix thoroughly. • 10. Read plate.

HDAC2 = biological target: T2, HDAC2 (Homo sapiens, UniProt Q92769); test: HDAC isoform assay, HDAC2; type: biochemical; conditions: substrate KI-177; read-out: HDAC2, IC50, ELISA (KI-177)
T2 construct: purchased BioMol

MJ cells = test: MTS cell viability assay, MJ; type: cell-based; conditions: 72 hr, read-out: MJ, IG50, MTS
Experimental: (§1) The MTS cell viability assay was used to determine the potency of proliferation inhibitor with. MTS measures mitochondrial dehydrogenase activity and serves as surrogate readout for the number of viable cells.
(§2) For MTS assay, cells were plated in 96-well plates at 2000 cells per well and incubated in the presence of compounds for 72 hr. MTS was added to each well as instructed by manufacture (Promega) and plates were incubated for 4 h at 37° C. The absorbance of each well was measured at 490 nm using a microplate reader.

HDAC4 = biological target: T3, HDAC4 (Homo sapiens, UniProt P56524); test: HDAC isoform assay, HDAC4; type: biochemical; conditions: substrate KI-177; read-out: HDAC4, IC50, ELISA (KI-177)
T3 construct: purchased BioMol

HH cells = test: MTS cell viability assay, HH; type: cell-based; conditions: Homo sapiens, 72 hr, read-out: HH, IG50, MTS
Experimental: The MTS cell viability assay was used to determine the potency of proliferation inhibitor with. MTS measures mitochondrial dehydrogenase activity and serves as surrogate readout for the number of viable cells. The protocol described below is based upon the “CellTiter 96 Aqueous Non-Radioactive Cell Proliferation Assay” sold by Promega (Technical Bulletin No. 169).
as §2

HCT-116 cells = test: MTS cell viability assay, HCT-116; type: cell-based; conditions: Homo sapiens; HCT-116, 72 hr; read-out: HCT-116, IG50, MTS
Experimental: as §1, §2

HDAC5 = HDAC5 (Homo sapiens, UniProt Q9UQL6); test: HDAC isoform assay, HDAC5
HDAC9 = biological target: T4, HDAC9 (Homo sapiens, UniProt Q9UKV0); test: HDAC isoform assay, HDAC9; type: biochemical
T4 construct: purchased BioMol

HDAC8 = biological target: T5, HDAC8 (Homo sapiens, UniProt Q9BY41); test: HDAC isoform assay, HDAC8
T5 sequence (Q9BY41 1-377): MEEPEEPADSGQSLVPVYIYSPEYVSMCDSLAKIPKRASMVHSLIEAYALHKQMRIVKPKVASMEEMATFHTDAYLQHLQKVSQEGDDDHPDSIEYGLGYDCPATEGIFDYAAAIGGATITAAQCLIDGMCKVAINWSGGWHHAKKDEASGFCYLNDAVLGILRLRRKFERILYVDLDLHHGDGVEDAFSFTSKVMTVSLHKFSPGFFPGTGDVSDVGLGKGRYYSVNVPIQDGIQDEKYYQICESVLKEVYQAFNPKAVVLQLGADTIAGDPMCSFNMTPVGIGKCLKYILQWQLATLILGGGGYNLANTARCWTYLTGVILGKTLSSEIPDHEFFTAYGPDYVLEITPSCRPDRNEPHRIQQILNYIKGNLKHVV

HDAC6 = biological target: T6, HDAC6 (Homo sapiens, UniProt Q9UBN7); test: HDAC isoform assay, HDAC6
T6 sequence (Q9UBN7 1-1215): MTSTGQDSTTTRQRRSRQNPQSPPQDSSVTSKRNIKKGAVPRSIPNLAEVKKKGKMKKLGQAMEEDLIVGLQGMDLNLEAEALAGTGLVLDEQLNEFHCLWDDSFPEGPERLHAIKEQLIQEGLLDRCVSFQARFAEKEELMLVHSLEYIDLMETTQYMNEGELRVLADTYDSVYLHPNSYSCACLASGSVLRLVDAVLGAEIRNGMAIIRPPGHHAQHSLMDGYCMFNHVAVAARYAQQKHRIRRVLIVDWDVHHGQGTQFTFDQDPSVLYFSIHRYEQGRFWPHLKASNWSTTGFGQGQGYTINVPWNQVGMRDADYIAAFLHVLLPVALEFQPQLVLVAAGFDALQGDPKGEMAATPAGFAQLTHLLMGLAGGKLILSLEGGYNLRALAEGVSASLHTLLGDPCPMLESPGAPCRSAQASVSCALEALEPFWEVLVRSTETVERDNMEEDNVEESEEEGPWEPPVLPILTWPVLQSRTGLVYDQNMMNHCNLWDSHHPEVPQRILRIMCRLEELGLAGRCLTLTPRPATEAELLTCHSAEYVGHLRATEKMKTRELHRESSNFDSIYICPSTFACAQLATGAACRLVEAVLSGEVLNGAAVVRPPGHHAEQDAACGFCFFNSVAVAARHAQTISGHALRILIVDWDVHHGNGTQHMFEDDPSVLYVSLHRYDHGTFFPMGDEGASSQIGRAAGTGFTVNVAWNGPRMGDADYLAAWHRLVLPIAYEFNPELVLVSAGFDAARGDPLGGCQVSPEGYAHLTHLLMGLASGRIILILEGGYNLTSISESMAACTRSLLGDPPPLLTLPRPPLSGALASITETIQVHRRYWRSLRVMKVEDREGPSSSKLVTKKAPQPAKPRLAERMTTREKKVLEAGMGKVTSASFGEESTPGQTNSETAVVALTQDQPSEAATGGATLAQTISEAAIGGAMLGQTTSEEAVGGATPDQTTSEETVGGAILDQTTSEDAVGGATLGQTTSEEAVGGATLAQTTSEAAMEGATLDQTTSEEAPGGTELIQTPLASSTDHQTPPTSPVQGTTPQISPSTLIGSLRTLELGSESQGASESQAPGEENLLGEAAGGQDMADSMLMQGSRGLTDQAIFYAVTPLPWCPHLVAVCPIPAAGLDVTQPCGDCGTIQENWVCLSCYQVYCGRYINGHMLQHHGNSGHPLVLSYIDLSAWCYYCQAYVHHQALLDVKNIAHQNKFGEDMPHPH

Hut78 cells = test: MTS cell viability assay, Hut78; type: cell-based; conditions: Homo sapiens; Hut78, 72 hr; read-out: Hut78, IG50, MTS
Experimental: as §1, §2

HDAC3 = biological target: T7, HDAC3 (Homo sapiens, UniProt O15379); test: HDAC isoform assay, HDAC3; type: biochemical; conditions: substrate KI-177; read-out: HDAC3, IC50, ELISA (KI-177)
T7 construct: purchased BioMol
T7 sequence (O15379 whole entry, canonical isoform): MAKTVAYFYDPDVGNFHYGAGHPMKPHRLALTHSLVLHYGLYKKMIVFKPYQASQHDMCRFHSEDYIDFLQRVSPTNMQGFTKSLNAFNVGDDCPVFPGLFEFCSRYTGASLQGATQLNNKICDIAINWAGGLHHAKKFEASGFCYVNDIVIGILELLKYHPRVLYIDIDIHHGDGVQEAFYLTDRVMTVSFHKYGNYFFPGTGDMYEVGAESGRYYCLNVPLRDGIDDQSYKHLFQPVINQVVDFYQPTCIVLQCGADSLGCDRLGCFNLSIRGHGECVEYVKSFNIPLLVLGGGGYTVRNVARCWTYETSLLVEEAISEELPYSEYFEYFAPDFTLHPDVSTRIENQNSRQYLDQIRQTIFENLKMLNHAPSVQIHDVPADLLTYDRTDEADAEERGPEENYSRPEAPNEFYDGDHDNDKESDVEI
T7 sequence (O75376 395-489 partner limits assumed): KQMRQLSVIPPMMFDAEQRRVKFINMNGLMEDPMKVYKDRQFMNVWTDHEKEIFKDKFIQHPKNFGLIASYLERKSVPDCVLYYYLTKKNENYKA
Experimental: The assay measures the ability of a small molecule to inhibit deacetylation of the substrate. Activator reagent recognizes the substrate only if the lysine has been deacetylated.
This homogeneous assay in performed in the same well without washing steps. The HDAC source, nuclear HeLa extract, is incubated with substrate in the presence of an inhibitor compound. At the end of the reaction time, activator solution, containing Trypsin and TSA, is added to stop the deacetylation reaction, and cleave the amino-coumarin from the deacetylated substrate. The plate is then read on either a Perkin Elmer Victor or Envision system using Umbilliferone filter set. […] The signal is directly proportional to the activity of HDACs and compound inhibition of HDAC is monitored by a decrease in signal.

T2 sequence (Q92769 whole entry, canonical isoform): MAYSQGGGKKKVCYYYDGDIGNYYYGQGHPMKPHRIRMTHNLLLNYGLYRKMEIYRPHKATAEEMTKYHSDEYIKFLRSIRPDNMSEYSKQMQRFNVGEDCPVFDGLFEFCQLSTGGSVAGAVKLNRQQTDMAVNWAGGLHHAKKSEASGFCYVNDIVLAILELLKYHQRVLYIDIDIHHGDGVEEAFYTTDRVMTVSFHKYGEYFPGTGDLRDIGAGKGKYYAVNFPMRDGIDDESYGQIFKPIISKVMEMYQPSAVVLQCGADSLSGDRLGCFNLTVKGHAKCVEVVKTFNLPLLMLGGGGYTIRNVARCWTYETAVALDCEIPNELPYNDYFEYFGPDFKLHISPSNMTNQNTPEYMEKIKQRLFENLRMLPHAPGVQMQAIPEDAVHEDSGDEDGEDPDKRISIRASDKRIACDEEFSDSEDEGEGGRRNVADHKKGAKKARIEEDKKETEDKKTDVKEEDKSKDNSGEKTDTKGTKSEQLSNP
T4 sequence (Q9UKV0 whole entry, canonical isoform): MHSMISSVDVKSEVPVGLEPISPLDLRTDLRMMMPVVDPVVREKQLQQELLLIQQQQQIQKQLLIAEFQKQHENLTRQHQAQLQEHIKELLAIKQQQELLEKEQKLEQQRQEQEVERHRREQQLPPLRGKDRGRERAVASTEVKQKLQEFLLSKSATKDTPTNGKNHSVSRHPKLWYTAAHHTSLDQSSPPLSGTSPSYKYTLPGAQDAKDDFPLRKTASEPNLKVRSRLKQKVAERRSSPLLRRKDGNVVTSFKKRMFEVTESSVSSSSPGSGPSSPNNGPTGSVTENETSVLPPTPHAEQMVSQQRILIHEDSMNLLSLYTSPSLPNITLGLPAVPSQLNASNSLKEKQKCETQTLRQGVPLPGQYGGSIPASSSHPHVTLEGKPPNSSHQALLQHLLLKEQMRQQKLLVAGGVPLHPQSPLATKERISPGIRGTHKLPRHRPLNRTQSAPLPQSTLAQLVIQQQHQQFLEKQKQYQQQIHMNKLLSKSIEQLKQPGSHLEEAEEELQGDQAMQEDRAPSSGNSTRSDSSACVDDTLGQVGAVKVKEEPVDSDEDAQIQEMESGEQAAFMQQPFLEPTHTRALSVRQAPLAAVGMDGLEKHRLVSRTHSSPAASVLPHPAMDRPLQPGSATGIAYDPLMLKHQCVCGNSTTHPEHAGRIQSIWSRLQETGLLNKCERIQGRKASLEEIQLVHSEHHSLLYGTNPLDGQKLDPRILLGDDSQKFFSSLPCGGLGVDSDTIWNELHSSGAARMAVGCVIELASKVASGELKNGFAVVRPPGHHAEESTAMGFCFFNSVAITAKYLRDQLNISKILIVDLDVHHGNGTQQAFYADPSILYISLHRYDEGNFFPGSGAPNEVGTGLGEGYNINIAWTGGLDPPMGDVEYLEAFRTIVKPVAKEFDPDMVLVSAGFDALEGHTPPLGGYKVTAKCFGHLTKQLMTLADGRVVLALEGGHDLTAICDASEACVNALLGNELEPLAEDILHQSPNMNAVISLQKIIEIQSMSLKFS
Chain of HDAC5 (Q9UQL6 whole entry, canonical isoform): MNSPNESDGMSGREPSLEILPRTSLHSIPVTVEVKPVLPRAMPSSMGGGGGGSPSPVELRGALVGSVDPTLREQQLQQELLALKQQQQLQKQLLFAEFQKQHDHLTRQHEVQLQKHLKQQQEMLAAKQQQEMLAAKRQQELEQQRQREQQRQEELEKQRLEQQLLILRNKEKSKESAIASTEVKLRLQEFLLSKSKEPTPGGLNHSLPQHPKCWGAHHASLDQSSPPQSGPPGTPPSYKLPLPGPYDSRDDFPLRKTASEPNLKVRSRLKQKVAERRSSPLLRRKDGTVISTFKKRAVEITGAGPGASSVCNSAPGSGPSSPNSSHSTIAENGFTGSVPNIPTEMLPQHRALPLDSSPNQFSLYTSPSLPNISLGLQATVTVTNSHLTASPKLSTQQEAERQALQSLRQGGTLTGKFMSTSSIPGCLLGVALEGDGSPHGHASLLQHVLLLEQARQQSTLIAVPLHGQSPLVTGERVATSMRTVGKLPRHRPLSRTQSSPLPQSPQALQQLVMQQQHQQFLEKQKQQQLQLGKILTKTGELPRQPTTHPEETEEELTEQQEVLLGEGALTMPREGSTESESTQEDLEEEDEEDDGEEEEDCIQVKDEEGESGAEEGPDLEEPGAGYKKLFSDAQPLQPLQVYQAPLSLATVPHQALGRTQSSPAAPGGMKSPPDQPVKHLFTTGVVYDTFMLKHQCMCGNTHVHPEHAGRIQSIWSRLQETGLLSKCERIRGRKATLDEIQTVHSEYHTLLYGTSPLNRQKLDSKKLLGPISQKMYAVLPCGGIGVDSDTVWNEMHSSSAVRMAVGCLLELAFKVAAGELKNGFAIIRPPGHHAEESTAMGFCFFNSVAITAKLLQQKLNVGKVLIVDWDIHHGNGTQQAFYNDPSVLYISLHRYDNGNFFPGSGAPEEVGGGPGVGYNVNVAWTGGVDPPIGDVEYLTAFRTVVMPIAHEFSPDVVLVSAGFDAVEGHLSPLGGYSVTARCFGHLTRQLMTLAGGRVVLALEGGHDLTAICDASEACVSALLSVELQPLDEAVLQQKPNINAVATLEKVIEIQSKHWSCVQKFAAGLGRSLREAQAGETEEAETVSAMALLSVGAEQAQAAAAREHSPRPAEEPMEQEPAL
T3 sequence (P56524 whole entry, canonical isoform): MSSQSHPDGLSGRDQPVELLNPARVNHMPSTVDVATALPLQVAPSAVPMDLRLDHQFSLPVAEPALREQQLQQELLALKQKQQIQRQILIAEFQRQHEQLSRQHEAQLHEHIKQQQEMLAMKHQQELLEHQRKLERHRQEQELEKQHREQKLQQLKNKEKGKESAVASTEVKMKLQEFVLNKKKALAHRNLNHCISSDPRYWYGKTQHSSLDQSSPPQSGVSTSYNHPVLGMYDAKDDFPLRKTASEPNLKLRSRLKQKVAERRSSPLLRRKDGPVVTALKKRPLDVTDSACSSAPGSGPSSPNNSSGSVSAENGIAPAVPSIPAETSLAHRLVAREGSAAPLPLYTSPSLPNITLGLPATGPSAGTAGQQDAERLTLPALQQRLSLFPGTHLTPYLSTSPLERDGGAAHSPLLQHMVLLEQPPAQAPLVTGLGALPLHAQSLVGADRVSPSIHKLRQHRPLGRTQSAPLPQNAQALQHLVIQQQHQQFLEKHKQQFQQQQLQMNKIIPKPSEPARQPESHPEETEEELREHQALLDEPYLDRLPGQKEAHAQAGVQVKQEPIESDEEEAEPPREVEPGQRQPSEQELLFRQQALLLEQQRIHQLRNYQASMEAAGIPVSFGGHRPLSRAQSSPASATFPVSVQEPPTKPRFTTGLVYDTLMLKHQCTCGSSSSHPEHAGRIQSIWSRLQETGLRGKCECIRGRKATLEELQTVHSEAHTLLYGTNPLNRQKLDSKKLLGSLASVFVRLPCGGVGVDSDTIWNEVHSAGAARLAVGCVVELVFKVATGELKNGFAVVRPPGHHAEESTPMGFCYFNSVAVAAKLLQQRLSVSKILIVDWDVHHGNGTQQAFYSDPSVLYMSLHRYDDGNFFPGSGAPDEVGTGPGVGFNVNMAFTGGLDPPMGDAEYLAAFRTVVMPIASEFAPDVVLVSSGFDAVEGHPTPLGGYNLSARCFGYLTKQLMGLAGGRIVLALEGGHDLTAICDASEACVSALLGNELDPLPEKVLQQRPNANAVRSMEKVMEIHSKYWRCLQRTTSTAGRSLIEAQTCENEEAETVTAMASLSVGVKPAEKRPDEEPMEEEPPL
T1 sequence (Q13547 whole entry): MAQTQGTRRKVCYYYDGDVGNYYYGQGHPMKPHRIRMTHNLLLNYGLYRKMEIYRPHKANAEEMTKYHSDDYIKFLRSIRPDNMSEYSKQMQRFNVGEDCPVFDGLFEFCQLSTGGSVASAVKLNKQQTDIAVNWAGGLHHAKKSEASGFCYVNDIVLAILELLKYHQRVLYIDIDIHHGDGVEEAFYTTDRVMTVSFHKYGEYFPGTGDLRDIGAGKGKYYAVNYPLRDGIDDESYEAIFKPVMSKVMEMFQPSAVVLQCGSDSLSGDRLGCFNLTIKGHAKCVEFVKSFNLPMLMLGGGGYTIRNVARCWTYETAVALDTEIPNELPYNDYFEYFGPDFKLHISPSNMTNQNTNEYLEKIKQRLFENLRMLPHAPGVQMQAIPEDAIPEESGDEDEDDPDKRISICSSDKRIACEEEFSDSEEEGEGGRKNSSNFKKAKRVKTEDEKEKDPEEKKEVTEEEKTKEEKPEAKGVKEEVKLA

SMILES: O=C(CCC1CCN(C(=O)c2cn3c4c(cccc24)CCC3)CC1)NO [compound 18, 3-[1-(5,6-dihydro-4H-pyrrolo[3,2,1-ij]quinolin-1-ylcarbonyl)piperidin-4-yl]-N-hydroxypropanamide]
- IC50 (HDAC1): 0.0357 µM
- IC50 (HDAC2): 10 µM
- IC50 (MJ cells): 0.39 µM
- IC50 (HDAC4): 0.0691 µM
- IC50 (HH cells): 0.186 µM
- IC50 (HCT-116 cells): 1.14 µM
- IC50 (HDAC5): 0.0915 µM
- IC50 (HDAC9): 0.535 µM
- IC50 (HDAC8): 4.97 µM
- melting point: 110 to 113 °C
- IC50 (HDAC6): 0.144 µM
- IC50 (Hut78 cells): 0.987 µM
- IC50 (HDAC3): 0.0298 µM

Source: US20100261710A1, “HDAC Inhibitors” (ARQULE, INC., priority 2007, published 2010)
